Series [1] can be described thus: Molar enthalpy of transition or fusion. To be noted: DSC.
The conditions of series [2]: DTA; for Triple point temperature: Crystal 2.

Values joined by “and” are separate entries in the source; they are usually repeats but may differ in a detail not shown here. Identical values can stand only once. ± gives the expanded uncertainty stated by the source.

These results are taken from the NIST ThermoML archive (doi:10.1016/j.jct.2013.08.019).

Consider `OCCCCCCCCO` [1,8-octanediol], for which the “Molar enthalpy of transition or fusion” value in series [1] (Crystal) came out at 8.68 ± 0.191 kcal/mol. Besides, the Normal melting temperature in series [2] (Crystal) turned out to be 58.5 ± 0.6 °C.

On to `OCCCCCCO` [1,6-hexanediol], for which the “Molar enthalpy of transition or fusion” value in series [1] (Crystal) amounted to 6.31 ± 0.143 kcal/mol. Moreover, the Normal melting temperature in series [2] (Crystal) worked out at 41.6 ± 0.6 °C.

Turning to `OCCCCCCCCCCCO` [1,11-undecanediol], the “Molar enthalpy of transition or fusion” value in series [1] (Crystal) was 11 ± 0.239 kcal/mol. For the same molecule, the Normal melting temperature in series [2] (Crystal) worked out at 61.0 ± 0.6 °C.

As to `OCCCCCCCCCO` [1,9-nonanediol], the “Molar enthalpy of transition or fusion” value in series [1] (Crystal) is 8.77 ± 0.191 kcal/mol. Besides, the Normal melting temperature in series [2] (Crystal) stood at 45.6 ± 0.6 °C.

Regarding `OCCCCCCCCCCCCCCCO` [1,15-pentadecanediol], the “Molar enthalpy of transition or fusion” value in series [1] (Crystal 2) is 15.6 kcal/mol and 9.15 kcal/mol. Further, the Normal melting temperature in series [2] (Crystal 1) amounted to 88.1 ± 0.7 °C. Also, in series [2], the Triple point temperature turned out to be 349 ± 0.7 K.

Take `OCCCCCCCCCCCCO` [1,12-dihydroxydodecane]: the “Molar enthalpy of transition or fusion” value in series [1] (Crystal) amounted to 13 ± 0.263 kcal/mol. The Normal melting temperature in series [2] (Crystal) turned out to be 79.8 ± 0.7 °C.

In the case of `OCCCCCCCCCCCCCCCCO` [1,16-dihydroxyhexadecane], the “Molar enthalpy of transition or fusion” value in series [1] (Crystal 2) was found to be 17.4 ± 0.359 kcal/mol. Besides, in series [2] (Crystal 1), the Normal melting temperature turned out to be 93 ± 0.7 °C. Also, the Triple point temperature in series [2] turned out to be 364.1 ± 0.7 K.

On to `OCCCCCCCCCCCCCO` [1,13-tridecanediol], for which the “Molar enthalpy of transition or fusion” value in series [1] (Crystal 2) is 13.1 ± 0.287 kcal/mol. Besides, the Normal melting temperature in series [2] (Crystal 1) was found to be 77.2 ± 0.7 °C. Also, the Triple point temperature in series [2] is recorded as 339.3 ± 0.7 K.

`OCCCCCCCCCCCCCCO` [1,14-tetradecanediol]: the “Molar enthalpy of transition or fusion” value in series [1] (Crystal) came out at 15.2 ± 0.311 kcal/mol. Moreover, the Normal melting temperature in series [2] (Crystal) is 86.1 ± 0.7 °C.

On to `OCCCCCCCCCCO` [1,10-decanediol], for which the “Molar enthalpy of transition or fusion” value in series [1] (Crystal) is 10.8 ± 0.239 kcal/mol. Besides, the Normal melting temperature in series [2] (Crystal) is 72.7 ± 0.7 °C.

In the case of `OCCCCCCCO` [1,7-heptanediol], the “Molar enthalpy of transition or fusion” value in series [1] (Crystal) came to 6.29 ± 0.215 kcal/mol. Further, the Normal melting temperature in series [2] (Crystal) came out at 17.4 ± 4 °C.
